This passage reports IC50 results from US11384099B2, “Pyrazolopyridinone compounds” (Janssen Pharmaceutica NV, priority 2017, dated 2022).

What is called IC50 is the midpoint of a concentration-inhibition curve.

Where a name gives a salt, the structure may show the parent alone.

Experiment [1] deals with NIH/3T3 cells transfected with control vector (MOCK). The experiment is described as follows: NIH/3T3 mock cell proliferation assay (CTG, counter assay). In kind it is cell-based. The settings on record: Mus musculus, NIH3T3; 72-hr incubation, CellTiter Glo; counter assay for general toxicity. As for the experimental part:
NIH/3T3 Mock Cell Proliferation Assay
In day 1, 90 μL of cell suspension (NIH/3T3 cells transfected with the same control vector as in the above two proliferation assays) (total 30,000 cells per well in growth medium (DMEM containing 1% Glutamax, 10% FBS and 1% Pen/Strep)) was seeded in a 96-well plate and then incubated overnight at 37° C. and 5% CO2. In day 2, 10 μL of growth medium containing 10-fold stock solution of testing compound was added into cell cultures (9 dose points with 3× serial dilution, starting with 30 μM, 0.3% DMSO final). After 72-hr incubation at 37° C. and 5% CO2, in day 5 a volume of 50 μL CellTiter Glo (CTG) reagent was added into cell-containing 96-well plate and the plate was incubated at room temperature for 10 minutes before RLUs (relative light unit) were measured on a microplate reader with luminescence detection module. The RLU value was normalized to survival % and concentration-response curve was plotted using Prism to calculate IC50 (M), pIC50 (−log IC50) and HillSlope value.
(In ATP-based viability assays light output follows the ATP content of the culture.)

Experiment [2] has as its target T1, human FGFR3 V555M enzyme (cytoplasmic domain carrying V555M mutation) (Homo sapiens, UniProt P22607, V555M).
T1 construct: cytoplasmic domain carrying V555M mutation, from Carna Biosciences; purchased Carna Biosciences
As to the kind of experiment: FGFR3 V555M mobility shift assay (enzymatic assay, Caliper). It counts as biochemical. The settings on record: 30 μM ATP, 45 minutes at 30° C. As for the experimental part:
FGFR3 V555M Mobility Shift Assay (Enzymatic Assay)
In a final reaction volume of 25 μL, 0.04 ng/μL human FGFR3 V555M enzyme (cytoplasmic domain carrying V555M mutation, from Carna Biosciences) was incubated with 30 μM ATP, 1 μM FL-peptide 30 substrate and 250 nL of testing compound (1% DMSO final) in assay buffer (100 mM HEPES pH 7.4, 10 mM MgCl2, 0.003% Brij35, 1 mM DTT). After incubation for 45 minutes at 30° C. the reaction was stopped with 10 μL of 0.5M EDTA pH 8.0, and then L of reaction mixture was transferred to reading plate and measured on Caliper EZ reader II.

Experiment [3] has as its target T2, human FGFR3 wild type enzyme (cytoplasmic domain) (Homo sapiens, UniProt P22607).
T2 construct: human FGFR3 wild type enzyme (cytoplasmic domain, from Cama Biosciences); purchased Carna Biosciences
The experiment is described as follows: FGFR3 wild type mobility shift assay (enzymatic assay, Caliper). In kind it is biochemical. Particulars: 75 μM ATP, 50 minutes at 30° C. The protocol: FGFR3 Wild Type Mobility Shift Assay (Enzymatic Assay)
In a final reaction volume of 25 μL, 0.04 ng/μL human FGFR3 wild type enzyme (cytoplasmic domain, from Cama Biosciences) was incubated with 75 μM ATP, 1 μM FL-peptide 30 substrate and 250 nL of testing compound (1% DMSO final) in assay buffer (100 mM HEPES pH 7.4, 10 mM MgCl2, 0.003% Brij35, 1 mM DTT). After incubation for 50 minutes at 30° C. the reaction was stopped with 10 μL of 0.5M EDTA pH 8.0, and then L of reaction mixture was transferred to reading plate and measured on Caliper EZ reader II.

T1 sequence (P22607 397-806 V555M limits assumed): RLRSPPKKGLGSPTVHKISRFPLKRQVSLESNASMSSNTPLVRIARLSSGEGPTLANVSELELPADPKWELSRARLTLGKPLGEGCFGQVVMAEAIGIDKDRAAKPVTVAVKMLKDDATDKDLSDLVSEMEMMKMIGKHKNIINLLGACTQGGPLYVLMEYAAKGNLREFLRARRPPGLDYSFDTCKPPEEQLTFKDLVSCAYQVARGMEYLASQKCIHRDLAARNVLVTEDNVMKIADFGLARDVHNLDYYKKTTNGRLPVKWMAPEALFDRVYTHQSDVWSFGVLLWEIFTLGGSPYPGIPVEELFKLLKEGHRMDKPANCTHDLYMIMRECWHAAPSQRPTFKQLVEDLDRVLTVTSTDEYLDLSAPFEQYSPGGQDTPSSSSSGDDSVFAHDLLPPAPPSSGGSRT
T2 sequence (P22607 397-806 limits assumed): as the sequence (P22607 397-806 V555M limits assumed) above, with M159V counted along it

For the compound `COCC(Nc1c(-c2nc3ccc(OC)cc3[nH]2)c(=O)[nH]c2cn(C)nc12)c1ncccn1` (single isomer, unassigned) [Compound 12, (S*)-7-((2-methoxy-1-(pyrimidin-2-yl)ethyl)amino)-6-(6-methoxy-1H-benzo[d]imidazol-2-yl)-2-methyl-2H-pyrazolo[4,3-b]pyridin-5 (4H)-one], the concentration for half-maximal inhibition (IC50) in experiment [1] amounted to 1500 nM; in experiment [2] it was 4.25 nM; in experiment [3] it was 18 nM.

As to `CCC(Nc1c(-c2nc3ccc(OC)cc3[nH]2)c(=O)[nH]c2cn(C)nc12)c1ncccn1` (single isomer, unassigned) [Compound 17, (R*)-6-(6-Methoxy-1H-benzo[d]imidazol-2-yl)-2-methyl-7-((1-(pyrimidin-2-yl)propyl)-amino)-2H-pyrazolo[4,3-b]pyridin-5 (4H)-one], the IC50 in experiment [1] was 959 nM; in experiment [2] it was 0.957 nM; in experiment [3] it was 4.87 nM.

As for `COc1cc2[nH]c(-c3c(NC(c4ncccn4)C(C)C)c4nn(C)cc4[nH]c3=O)nc2cn1` (single isomer, unassigned) [Compound 18, (S*)-6-(6-methoxy-1H-imidazo[4,5-c]pyridin-2-yl)-2-methyl-7-((2-methyl-1-(pyrimidin-2-yl)propyl)amino)-2H-pyrazolo[4,3-b]pyridin-5 (4H)-one], the IC50 in experiment [1] stood at 3120 nM; in experiment [2], 1.69 nM; in experiment [3], 8.51 nM.

Turning to `CC(C)[C@H](Nc1c(-c2nc3ncc(N(C)C)cc3[nH]2)c(=O)[nH]c2cn(C)nc12)c1ncccn1` (single isomer, unassigned) [Compound 23, (S*)-6-(6-(dimethylamino)-1H-imidazo[4,5-b]pyridin-2-yl)-2-methyl-7-((2-methyl-1-(pyrimidin-2-yl)propyl)amino)-2H-pyrazolo[4,3-b]pyridin-5 (4H)-one 0.14 formate], the IC50 in experiment [1] turned out to be 943 nM; in experiment [2], 0.401 nM; in experiment [3] it was 3.52 nM.

`COC[C@@H](Nc1c(-c2nc3cc(OC)c(OC)cc3[nH]2)c(=O)[nH]c2cn(C)nc12)c1ncccn1` (single isomer, unassigned) [Compound 25, (S*)-6-(5,6-dimethoxy-H-benzo[d]imidazol-2-yl)-7-((2-methoxy-1-(pyrimidin-2-yl)-ethyl)amino)-2-methyl-2H-pyrazolo[4,3-b]pyridin-5 (4H)-one]: the IC50 in experiment [1] worked out at 4550 nM.

`COc1cc2nc(-c3c(N[C@H](c4ncccn4)C(C)C)c4nn(C)cc4[nH]c3=O)[nH]c2cc1OC` (single isomer, unassigned) [Compound 27, (S*)-6-(5,6-dimethoxy-H-benzo[d]imidazol-2-yl)-2-methyl-7-((2-methyl-1-(pyrimidin-2-yl)propyl)amino)-2H-pyrazolo[4,3-b]pyridin-5 (4H)-one]: half-maximal inhibition in experiment [1] (IC50) required 722 nM.

Consider `COCCOc1cc2[nH]c(-c3c(NC(c4ncccn4)C(C)C)c4nn(C)cc4[nH]c3=O)nc2cc1OC` (single isomer, unassigned) [Compound 36, (S*)-6-(5-methoxy-6-(2-methoxyethoxy)-1H-benzo[d]imidazol-2-yl)-2-methyl-7-((2-methyl-1-(pyrimidin-2-yl)propyl)amino)-2H-pyrazolo[4,3-b]pyridin-5 (4H)-one], for which the IC50 in experiment [1] stood at 757 nM; in experiment [2], 0.503 nM; in experiment [3] it was 2.25 nM.

Take `COc1cnc2nc(-c3c(NC(c4ncccn4)C(C)C)c4nn(C)cc4[nH]c3=O)[nH]c2c1` (single isomer, unassigned) [Compound 40, (S*)-6-(6-methoxy-1H-imidazo[4,5-b]pyridin-2-yl)-2-methyl-7-((2-methyl-1-(pyrimidin-2-yl)propyl)amino)-2,4-dihydro-5H-pyrazolo[4,3-b]pyridin-5-one]: the IC50 in experiment [1] worked out at 1740 nM; in experiment [2], 0.743 nM; in experiment [3], 5.93 nM.
